Calls of active or inactive are those of the source. The rule behind the calls is not given here.

The source of these data is ChEMBL document CHEMBL5365443, “Synthesis and biological evaluation of simplified ajudazol derivatives reveal potent 5-lipoxygenase inhibition and considerable apoptotic activity in neuroblastoma cells” (Bioorg Med Chem Lett, 2023).

One data set addresses T1, Prostaglandin E synthase (Homo sapiens, UniProt O14684).
T1 sequence (O14684 whole entry): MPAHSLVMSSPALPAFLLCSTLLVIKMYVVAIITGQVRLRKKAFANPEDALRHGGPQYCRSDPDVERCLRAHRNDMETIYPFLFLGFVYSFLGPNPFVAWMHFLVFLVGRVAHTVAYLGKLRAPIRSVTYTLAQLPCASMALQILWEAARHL
Nature of the data set: Inhibition of mPGES-1 (unknown origin).

In data set [1] the target is T2, Polyunsaturated fatty acid 5-lipoxygenase (Homo sapiens, UniProt P09917).
T2 sequence (P09917 whole entry): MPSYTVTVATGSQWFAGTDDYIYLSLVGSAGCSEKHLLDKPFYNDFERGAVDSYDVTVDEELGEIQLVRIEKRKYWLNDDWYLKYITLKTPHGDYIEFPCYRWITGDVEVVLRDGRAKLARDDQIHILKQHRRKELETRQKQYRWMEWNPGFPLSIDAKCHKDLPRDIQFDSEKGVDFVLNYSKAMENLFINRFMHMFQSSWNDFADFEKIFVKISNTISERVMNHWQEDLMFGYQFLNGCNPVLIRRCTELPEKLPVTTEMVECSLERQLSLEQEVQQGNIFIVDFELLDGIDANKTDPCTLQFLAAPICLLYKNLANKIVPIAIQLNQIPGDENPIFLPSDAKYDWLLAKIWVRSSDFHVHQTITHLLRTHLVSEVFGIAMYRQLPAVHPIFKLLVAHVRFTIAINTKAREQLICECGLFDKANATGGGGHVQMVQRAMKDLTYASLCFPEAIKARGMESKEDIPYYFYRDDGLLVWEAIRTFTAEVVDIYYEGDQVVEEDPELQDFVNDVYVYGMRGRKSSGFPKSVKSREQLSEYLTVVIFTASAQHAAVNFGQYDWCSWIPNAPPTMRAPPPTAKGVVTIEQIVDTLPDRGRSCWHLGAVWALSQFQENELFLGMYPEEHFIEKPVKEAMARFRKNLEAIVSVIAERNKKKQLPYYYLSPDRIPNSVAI
The data set is described as follows: Inhibition of 5-LO in human neutrophils. Format: cell-based, Neutrophil.

The subject of a further data set is 1321N1. Nature of the data set: Antiproliferative activity against human 1321N1 cells assessed as inhibition of cell growth by MTT assay. In kind it is functional, cell-based. (Formazan colour is commonly taken as a measure of viable cells.)
Data set [2] concerns the target T2, Polyunsaturated fatty acid 5-lipoxygenase. Nature of the data set: Inhibition of 5-LO (unknown origin).
Data set [3] has as its system B104. The data set is described as follows: Antiproliferative activity against rat B104 cells assessed as reduction in cell growth at 10 to 1000 nM. In kind it is functional, cell-based. As to conditions: dose 10-1000 nM.
Data set [4] has as its system B104. The data set is described as follows: Induction of apoptosis in rat B104 cells assessed as DNA fragmentation at 10 uM by DNA laddering assay. In kind it is functional, cell-based.
Data set [5] has as its system B104. The data set is described as follows: Upregulation of OGDH level in rat B104 cells at 10 nM. Format: functional, cell-based.
For data set [6], the system named is B104. The data set is described as follows: Upregulation of ICDH level in rat B104 cells at 10 nM. Format: functional, cell-based.
The subject of data set [7] is B104. Nature of the data set: Upregulation of LDH level in rat B104 cells at 10 nM. Format: functional, cell-based.
For data set [8], the system named is B104. The data set is described as follows: Induction of apoptosis in rat B104 cells assessed as DNA fragmentation at 100 uM by DNA laddering assay. In kind it is functional, cell-based.
In the next data set the test system is SH-SY5Y. Nature of the data set: Antiproliferative activity against human SH-SY5Y cells assessed as reduction in cell growth at 10 to 1000 nM. In kind it is functional, cell-based. Conditions: dose 10-1000 nM.
In data set [9] the test system is B104. Nature of the data set: Antiproliferative activity against rat B104 cells assessed as reduction in cell growth by MTT assay. Format: functional, cell-based.
Data set [10] can be described thus: Drug degradation in methanol assessed as half life. Format: ADME.
Data set [11] concerns B104. The data set is described as follows: Upregulation of […] mRNA expression in rat B104 cells. Format: functional, cell-based.
Data set [12] concerns B104. The data set is described as follows: Upregulation of ICDH mRNA expression in rat B104 cells. Format: functional, cell-based.
The subject of data set [13] is B104. The data set is described as follows: Upregulation of NADH mRNA expression in rat B104 cells. Format: functional, cell-based.
For data set [14], the system named is B104. Nature of the data set: Effect on NADH:UQ oxidoreductase expression in rat B104 cells. Format: functional, cell-based.
The test system of data set [15] is B104. Nature of the data set: Upregulation of LDH mRNA expression in rat B104 cells. In kind it is functional, cell-based.

On to `C=C(C/C=C\C=C/CC/C=C/CN(C)C(=O)/C=C(\C)OC)c1ncco1`, for which the IC50 (as a rule, the point on the concentration scale where inhibition reaches its midpoint) against Prostaglandin E synthase was greater than 30 µM; in [1], greater than 30 µM; with 1321N1, 4.3 µM; in data set [2] it was 24.5 µM.
As to `C=C(C/C=C\C=C/CC/C=C/CN(C)C(=O)/C=C(\C)OC)c1nc(C[C@H](C)[C@@H]2CC[C@@H](C)C[C@H]2O)co1`, the outcome with B104 [3], in the data set on B104 [4], in the data set with B104 [5], in the data set on B104 [6], with SH-SY5Y and with B104 [9] was Active. The IC50 at Prostaglandin E synthase amounted to 18.6 µM; in data set [1], 5.2 µM; with 1321N1, 3.3 µM; in data set [2] it was 1 µM. The result in the data set on B104 [7] and with B104 [8] was inactive.
For `CO/C(C)=C/C(=O)N(C)C/C=C/CC/C=C\C=C/C[C@@H](C)c1nc(C[C@@H](C)[C@H]2OC(=O)c3c(ccc(C)c3O)[C@@H]2O)co1`, the IC50 in data set [1] came to 1.6 µM; in data set [2], 6.9 µM.
Take `C=C(C/C=C\C=C/CC/C=C/CN(C)C(=O)/C=C(\C)OC)c1nc(C[C@@H](C)[C@H]2OC(=O)c3c(ccc(C)c3O)[C@@H]2O)co1`: the outcome in the data set on B104 [3], with B104 [4], with SH-SY5Y and in the data set with B104 [9] was Active. In data set [10], the half-life (in general, how long it takes for the measured level to halve) is roughly 168 h. The IC50 came to 3.2 µM at Prostaglandin E synthase, 2.5 µM in [1], 9.4 µM in the data set with 1321N1 and 1.1 µM in data set [2]. The result in the data set with B104 [8] was inactive.
With `C=C(I)CCO[Si](CC)(CC)CC`, the result with B104 [11], with B104 [12], in the data set with B104 [13] and in the data set on B104 [14] was Active. Further, the outcome with B104 [15] was inactive.
